From article PMC12525784, “Novel Azaborine-Based Inhibitors of Histone Deacetylases (HDACs)” (Molecules, 2025)
Each block holds one molecule with its values, some of them ahead of it.

Key:
Assay type in all cases: biochemical
HDAC1 = target: T1, HDAC1 (Homo sapiens, UniProt Q13547); assay: HDAC1 enzymatic activity assay (dose-response, Boc-Lys(Ac)-AMC); conditions: 40 nM HDAC1, 50 µM Boc-Lys(Ac)-AMC; triplicate, mean ± SD
T1 construct: purchased BPS Bioscience
Protocol: (§1) Enzymatic activity assays for compound screening and dose–response analysis were performed as previously described. In brief, compounds were screened at 35 µM using 1 nM HDAC4 and 10 nM HDAC8, respectively. For dose–response curves, serial inhibitor dilutions were incubated with 40 nM HDAC1 (BPS Bioscience, San Diego, CA, USA), 1 nM HDAC4, or 10 nM HDAC8. Reactions were initiated with 20 µM Boc-Lys(Tfa)-AMC (HDAC4/8) or 50 µM Boc-Lys(Ac)-AMC (HDAC1) and terminated with 0.4 mg/mL trypsin (Roth, Karlsruhe, Germany) and 1.7 µM SATFMK (HDAC4/8) or 4.2 µM SAHA (HDAC1). All IC50 determinations were performed in triplicate, and the results are expressed as mean values ± standard deviation (SD). HDAC4 and HDAC8 were produced according to previously reported protocols. HDAC1 was purchased from BPS Bioscience (San Diego, CA, USA). Boc-Lys(Tfa)-AMC and trypsin were purchased from Bachem (Bubendorf, Switzerland) and AppliChem (Darmstadt, Germany), respectively.

HDAC4 = target: T2, HDAC4 (Homo sapiens, UniProt P56524); assay: HDAC4 enzymatic activity assay (dose-response, Boc-Lys(Tfa)-AMC); conditions: 1 nM HDAC4, 20 µM Boc-Lys(Tfa)-AMC; triplicate, mean ± SD
T2 construct: made in house
T2 sequence (P56524 whole entry): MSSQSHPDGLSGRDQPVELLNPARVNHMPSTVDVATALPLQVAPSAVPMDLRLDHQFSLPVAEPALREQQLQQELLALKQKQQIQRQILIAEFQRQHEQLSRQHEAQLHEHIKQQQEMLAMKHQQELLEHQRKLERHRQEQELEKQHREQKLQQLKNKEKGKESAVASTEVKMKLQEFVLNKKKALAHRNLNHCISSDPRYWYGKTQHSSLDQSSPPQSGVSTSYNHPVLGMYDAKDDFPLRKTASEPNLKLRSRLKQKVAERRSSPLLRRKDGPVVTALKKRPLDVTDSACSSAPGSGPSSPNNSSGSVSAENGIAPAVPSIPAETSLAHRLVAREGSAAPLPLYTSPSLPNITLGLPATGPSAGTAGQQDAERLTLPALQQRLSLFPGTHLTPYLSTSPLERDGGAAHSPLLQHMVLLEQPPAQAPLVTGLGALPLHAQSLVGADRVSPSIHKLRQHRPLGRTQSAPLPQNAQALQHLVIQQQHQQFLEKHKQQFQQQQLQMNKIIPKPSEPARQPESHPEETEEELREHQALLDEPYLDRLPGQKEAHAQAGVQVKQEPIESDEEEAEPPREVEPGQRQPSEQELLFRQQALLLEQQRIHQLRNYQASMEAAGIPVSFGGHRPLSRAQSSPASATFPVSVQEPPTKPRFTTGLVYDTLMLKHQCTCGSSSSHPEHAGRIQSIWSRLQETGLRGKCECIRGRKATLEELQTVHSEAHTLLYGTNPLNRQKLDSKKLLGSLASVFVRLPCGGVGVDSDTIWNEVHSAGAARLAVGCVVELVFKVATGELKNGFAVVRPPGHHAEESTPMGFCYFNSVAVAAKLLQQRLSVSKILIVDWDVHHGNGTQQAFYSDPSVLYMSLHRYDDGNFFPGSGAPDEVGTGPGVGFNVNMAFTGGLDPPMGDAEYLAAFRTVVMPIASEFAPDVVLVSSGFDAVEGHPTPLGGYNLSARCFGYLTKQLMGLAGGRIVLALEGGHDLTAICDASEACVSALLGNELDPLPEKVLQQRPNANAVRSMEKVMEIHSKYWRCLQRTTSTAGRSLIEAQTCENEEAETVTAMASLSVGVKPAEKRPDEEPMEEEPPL
Protocol: as §1, with “In brief, compounds were screened at 35 µM using 1 nM HDAC4 and 10 nM HDAC8, respectively.” left out, “Reactions were initiated with 20 µM Boc-Lys(Tfa)-AMC (HDAC4/8) or 50 µM Boc-Lys(Ac)-AMC (HDAC1) and terminated with 0.4 mg/mL trypsin (Roth, Karlsruhe, Germany) and 1.7 µM SATFMK (HDAC4/8) or 4.2 µM SAHA (HDAC1).” left out

HDAC8 = target: T3, HDAC8 (Homo sapiens, UniProt Q9BY41); assay: HDAC8 enzymatic activity assay (dose-response, Boc-Lys(Tfa)-AMC); conditions: 10 nM HDAC8, 20 µM Boc-Lys(Tfa)-AMC; triplicate, mean ± SD
T3 construct: made in house
T3 sequence (Q9BY41 1-377): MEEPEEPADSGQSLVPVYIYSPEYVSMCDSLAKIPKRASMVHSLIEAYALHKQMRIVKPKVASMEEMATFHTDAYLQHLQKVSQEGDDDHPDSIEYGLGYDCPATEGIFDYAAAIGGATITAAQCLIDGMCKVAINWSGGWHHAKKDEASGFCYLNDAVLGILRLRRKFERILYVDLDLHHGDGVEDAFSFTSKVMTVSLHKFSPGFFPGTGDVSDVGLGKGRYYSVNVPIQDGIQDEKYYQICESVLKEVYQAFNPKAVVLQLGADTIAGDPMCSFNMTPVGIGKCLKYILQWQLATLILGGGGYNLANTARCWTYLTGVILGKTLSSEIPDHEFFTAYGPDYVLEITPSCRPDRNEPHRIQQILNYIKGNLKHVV
Protocol: as §1, with “In brief, compounds were screened at 35 µM using 1 nM HDAC4 and 10 nM HDAC8, respectively.” left out, “Reactions were initiated with 20 µM Boc-Lys(Tfa)-AMC (HDAC4/8) or 50 µM Boc-Lys(Ac)-AMC (HDAC1) and terminated with 0.4 mg/mL trypsin (Roth, Karlsruhe, Germany) and 1.7 µM SATFMK (HDAC4/8) or 4.2 µM SAHA (HDAC1).” left out

T1 sequence (Q13547 whole entry): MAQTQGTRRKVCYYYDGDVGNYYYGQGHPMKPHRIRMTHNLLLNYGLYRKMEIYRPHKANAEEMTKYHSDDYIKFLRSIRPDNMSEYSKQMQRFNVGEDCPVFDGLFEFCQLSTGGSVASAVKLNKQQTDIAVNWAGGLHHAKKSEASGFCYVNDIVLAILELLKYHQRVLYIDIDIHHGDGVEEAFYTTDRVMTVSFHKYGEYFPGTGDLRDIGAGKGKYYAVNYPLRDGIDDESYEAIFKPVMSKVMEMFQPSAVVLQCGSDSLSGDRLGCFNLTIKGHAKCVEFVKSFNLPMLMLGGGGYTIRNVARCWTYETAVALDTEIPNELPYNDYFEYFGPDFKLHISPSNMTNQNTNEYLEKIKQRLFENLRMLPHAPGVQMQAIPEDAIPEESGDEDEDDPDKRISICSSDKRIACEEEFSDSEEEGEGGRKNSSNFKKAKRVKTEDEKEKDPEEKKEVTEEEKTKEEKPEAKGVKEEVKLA

SMILES: O=C(CCCc1cn(CB2C=Cc3ccccc3N2)nn1)NO [Compound 13]
IC50 (HDAC1): > 35 µM
IC50 (HDAC4): 23.1 ± 4.9 µM
IC50 (HDAC8): 3.3 ± 1.7 µM

SMILES: Nc1ccccc1NC(=O)CCCCCCC(=O)OCB1C=Cc2ccccc2N1 [Compound 17]
IC50 (HDAC1): 8.2 ± 2.5 µM
IC50 (HDAC4): 16.5 ± 1 µM
IC50 (HDAC8): 15 ± 3 µM

SMILES: Nc1cc(F)ccc1NC(=O)c1cccc(B2Nc3ccccc3N2)c1 [Compound 32]
IC50 (HDAC1): > 35 µM
IC50 (HDAC4): > 35 µM
IC50 (HDAC8): > 35 µM

SMILES: Nc1cc(F)ccc1NC(=O)CCc1cn(CB2C=Cc3ccccc3N2)nn1 [Compound 14]
IC50 (HDAC1): > 35 µM
IC50 (HDAC4): > 35 µM
IC50 (HDAC8): > 35 µM

SMILES: O=C(NO)c1ccc(B2Nc3ccccc3N2)cc1 [Compound 35]
IC50 (HDAC1): > 35 µM
IC50 (HDAC4): > 35 µM
IC50 (HDAC8): > 35 µM

SMILES: O=C(NO)c1cccc(CNCB2C=Cc3ccccc3N2)c1 [Compound 27]
IC50 (HDAC1): > 35 µM
IC50 (HDAC4): > 35 µM
IC50 (HDAC8): > 35 µM

SMILES: O=C(CCCCc1cn(CB2C=Cc3ccccc3N2)nn1)NO [Compound 12]
IC50 (HDAC1): > 35 µM
IC50 (HDAC4): 13.8 ± 4.3 µM
IC50 (HDAC8): 6.2 ± 3.4 µM

SMILES: Nc1ccccc1NC(=O)c1cccc(B2Nc3ccccc3N2)c1 [Compound 31]
IC50 (HDAC1): > 35 µM
IC50 (HDAC4): > 35 µM
IC50 (HDAC8): > 35 µM

SMILES: O=C(NO)c1cccc(B2Nc3ccccc3N2)c1 [Compound 30]
IC50 (HDAC1): 0.975 ± 0.394 µM
IC50 (HDAC4): 1.35 ± 0.18 µM
IC50 (HDAC8): 0.2 ± 0.02 µM

SMILES: O=C(CCCCCCNCB1C=Cc2ccccc2N1)NO [Compound 24]
IC50 (HDAC1): 9.3 ± 2.3 µM
IC50 (HDAC4): > 35 µM
IC50 (HDAC8): > 35 µM

SMILES: O=C(CCc1cn(CB2C=Cc3ccccc3N2)nn1)NO [Compound 11]
IC50 (HDAC1): > 35 µM
IC50 (HDAC4): > 35 µM
IC50 (HDAC8): > 35 µM

SMILES: O=C(/C=C/c1ccc(C(=O)NO)cc1)OCB1C=Cc2ccccc2N1 [Compound 18]
IC50 (HDAC1): 8.2 ± 1.8 µM
IC50 (HDAC4): > 35 µM
IC50 (HDAC8): 0.52 ± 0.11 µM

SMILES: Nc1ccccc1NC(=O)c1cccc(C(=O)OCB2C=Cc3ccccc3N2)c1 [Compound 21]
IC50 (HDAC1): > 35 µM
IC50 (HDAC4): > 35 µM
IC50 (HDAC8): > 35 µM

SMILES: Nc1ccccc1NC(=O)c1cn(CB2C=Cc3ccccc3N2)nn1 [Compound 9]
IC50 (HDAC1): > 35 µM
IC50 (HDAC4): 16.8 ± 1.6 µM
IC50 (HDAC8): 20 ± 3 µM

SMILES: O=C(NO)c1cccc(NCB2C=Cc3ccccc3N2)c1 [Compound 25]
IC50 (HDAC1): > 35 µM
IC50 (HDAC4): 17 ± 3 µM
IC50 (HDAC8): > 35 µM

Results, then the molecule that gave them:

IC50 (HDAC1): > 35 µM
IC50 (HDAC4): 14.7 ± 1.7 µM
IC50 (HDAC8): > 35 µM
SMILES: O=C(CCCCCCC(=O)OCB1C=Cc2ccccc2N1)NO [Compound 16d]

IC50 (HDAC1): > 35 µM
IC50 (HDAC4): > 35 µM
IC50 (HDAC8): > 35 µM
SMILES: Nc1cc(F)ccc1NC(=O)CCCCc1cn(CB2C=Cc3ccccc3N2)nn1 [Compound 15]

IC50 (HDAC1): > 35 µM
IC50 (HDAC4): > 35 µM
IC50 (HDAC8): > 35 µM
SMILES: Nc1ccccc1NC(=O)CCCCc1cn(CB2C=Cc3ccccc3N2)nn1 [Compound 8]

IC50 (HDAC1): 1.88 ± 0.11 µM
IC50 (HDAC4): 7.3 ± 1.7 µM
IC50 (HDAC8): 0.44 ± 0.07 µM
SMILES: O=C(NO)c1cccc(C(=O)OCB2C=Cc3ccccc3N2)c1 [Compound 23]

IC50 (HDAC1): > 35 µM
IC50 (HDAC4): > 35 µM
IC50 (HDAC8): > 35 µM
SMILES: O=C(CCCC(=O)OCB1C=Cc2ccccc2N1)NO [Compound 19]

IC50 (HDAC1): > 35 µM
IC50 (HDAC4): > 35 µM
IC50 (HDAC8): > 35 µM
SMILES: Nc1cc(F)ccc1NC(=O)c1cccc(C(=O)OCB2C=Cc3ccccc3N2)c1 [Compound 20]

IC50 (HDAC1): > 35 µM
IC50 (HDAC4): 8.08 ± 1.59 µM
IC50 (HDAC8): 19 ± 5 µM
SMILES: Nc1ccccc1NC(=O)CCCc1cn(CB2C=Cc3ccccc3N2)nn1 [Compound 10]

IC50 (HDAC1): > 35 µM
IC50 (HDAC4): > 35 µM
IC50 (HDAC8): > 35 µM
SMILES: Nc1ccccc1NC(=O)CCSCCC(=O)OCB1C=Cc2ccccc2N1 [Compound 22]

IC50 (HDAC1): > 35 µM
IC50 (HDAC4): > 35 µM
IC50 (HDAC8): > 35 µM
SMILES: Nc1cc(F)ccc1NC(=O)c1ccc(CNCB2C=Cc3ccccc3N2)cc1 [Compound 26]
